According to the supplement of paper PMC10307832:

Key:
Assay in all cases: relative viability (nuclei count vs DMSO), 5 days (fraction); higher = more cells survive
[1] = compound: COc1cc2ncn(-c3cc(OCc4ccccc4C(F)(F)F)c(C(N)=O)s3)c2cc1OC + CCNC(=O)c1noc(-c2cc(C(C)C)c(O)cc2O)c1-c1ccc(CN2CCOCC2)cc1 [Luminespib] (partner 0.01 µM)
Procedure, shortened: (§1)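 Relative viability divides the nuclei count in treated wells by that in vehicle wells. Lung cancer cell lines were seeded in 1536-well plates, dosed by pin tool the next day, and fixed and stained after 5 days in one step with final 0.05% Triton X-100, 1% formaldehyde and 1 ug/ml Hoechst. Dosing was a single drug or a fixed anchor-drug dose plus five library-drug doses (not always all listed) in √10 steps, and values are medians of duplicate plates imaged at 4×.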

[2] = compound: COc1cc2ncn(-c3cc(OCc4ccccc4C(F)(F)F)c(C(N)=O)s3)c2cc1OC + O=C(c1cc(Cc2n[nH]c(=O)c3ccccc23)ccc1F)N1CCN(C(=O)C2CC2)CC1 [Olaparib] (partner 8 µM)
Procedure, shortened: as §1

[3] = compound: COc1cc2ncn(-c3cc(OCc4ccccc4C(F)(F)F)c(C(N)=O)s3)c2cc1OC + Nc1ncn([C@H]2C[C@H](O)[C@@H](CO)O2)c(=O)n1 [Decitabine] (partner 2 µM)
Procedure, shortened: as §1

[4] = compound: COc1cc2ncn(-c3cc(OCc4ccccc4C(F)(F)F)c(C(N)=O)s3)c2cc1OC + CS(=O)(=O)CCNCc1ccc(-c2ccc3ncnc(Nc4ccc(OCc5cccc(F)c5)c(Cl)c4)c3c2)o1 [Lapatinib] (partner 2 µM)
Procedure, shortened: as §1

Cell Line	relative viability ([1]; first compound 0.05 µM)	relative viability ([1]; first compound 0.1581 µM)	relative viability ([1]; first compound 0.5 µM)	relative viability ([1]; first compound 1.581 µM)	relative viability ([1]; first compound 5 µM)	relative viability ([2]; first compound 0.05 µM)	relative viability ([2]; first compound 0.1581 µM)	relative viability ([2]; first compound 0.5 µM)	relative viability ([2]; first compound 1.581 µM)	relative viability ([2]; first compound 5 µM)	relative viability ([3]; first compound 0.05 µM)	relative viability ([3]; first compound 0.1581 µM)	relative viability ([3]; first compound 0.5 µM)	relative viability ([3]; first compound 1.581 µM)	relative viability ([3]; first compound 5 µM)	relative viability ([4]; first compound 0.05 µM)	relative viability ([4]; first compound 0.1581 µM)	relative viability ([4]; first compound 0.5 µM)	relative viability ([4]; first compound 1.581 µM)	relative viability ([4]; first compound 5 µM)
NCI-H596	1.16	1.08	0.79	0.272	0.276	0.542	0.692	0.765	0.413	0.306	1.6	1.13	0.935	0.817	0.425	1.1	1.22	0.911	0.586	0.33
LC-2-ad	0.759	0.857	0.515	0.293	0.29	0.431	0.593	0.466	0.173	0.176	0.824	0.761	0.63	0.203	0.2	0.811	0.592	0.511	0.119	0.0933
SK-MES-1	0.725	0.83	0.266	0.167	0.182	0.62	0.526	0.309	0.165	0.186	0.371	0.393	0.273	0.166	0.172	0.445	0.459	0.482	–	0.335
A-427	0.998	0.973	0.617	0.246	0.114	0.745	0.802	0.54	0.267	0.169	0.619	0.6	0.498	0.399	0.205	1.02	1.12	1	0.418	0.116
NCI-H322M	0.837	1.1	0.759	0.315	0.288	0.717	0.778	0.594	0.475	0.423	0.676	0.73	0.581	0.446	0.415	0.572	0.578	0.548	0.302	0.257
NCI-H1975	0.229	0.26	0.184	0.163	0.233	0.464	0.651	0.319	0.168	0.146	0.359	0.302	0.27	0.153	0.142	0.862	0.809	0.411	0.189	0.161
NCI-H1437	1.16	0.969	0.53	0.244	0.159	0.658	0.511	0.272	0.232	0.194	0.564	0.561	0.34	0.266	0.272	0.865	0.699	0.243	0.136	0.113
NCI-H2009	1.03	0.941	0.819	0.127	0.101	0.604	0.623	0.171	0.107	0.0932	0.344	0.301	0.259	0.197	0.17	0.868	0.777	0.318	0.169	0.146
NCI-H1651	1.15	0.858	0.36	0.137	0.109	0.18	0.157	0.15	0.14	0.153	0.619	0.64	0.463	0.192	0.263	0.916	0.96	0.365	0.103	0.108
NCI-H1666	1.06	0.937	0.508	0.36	0.363	0.79	0.786	0.622	0.56	0.466	0.749	0.719	0.693	0.501	0.424	0.905	0.674	0.298	0.229	0.325
NCI-H1734	0.18	0.239	0.17	0.147	0.125	0.235	0.646	0.247	0.212	0.144	0.382	0.588	0.469	0.214	0.157	1.14	0.986	0.792	0.241	0.186
EPLC-272H	–	0.31	0.115	0.111	0.153	0.177	0.221	0.0762	0.0805	0.146	0.356	0.362	0.168	0.113	0.133	0.976	0.867	0.527	0.111	0.0981
NCI-H2023	0.735	0.679	0.299	0.0886	0.0831	0.416	0.392	0.16	0.0751	0.0692	0.203	0.213	0.159	0.0779	0.0772	0.936	0.975	0.274	0.0863	0.095
BEN	0.398	0.522	0.227	0.21	0.214	1.11	1.01	0.636	0.425	0.359	0.816	0.828	0.526	0.403	0.408	0.696	0.526	0.56	0.256	0.212
COR-L 105	0.828	0.846	0.616	0.312	0.245	0.709	0.687	0.595	0.335	0.369	0.65	0.601	0.572	0.438	0.278	0.373	0.365	0.277	0.255	0.292
ABC-1	0.709	0.679	0.255	0.311	0.263	0.705	0.837	0.64	0.477	0.429	1.21	1.18	0.761	0.513	0.357	1.18	0.723	1.11	1.14	1.2
HCC-15	0.312	0.291	0.149	0.101	0.0855	0.566	0.446	0.232	0.131	0.14	0.592	0.581	0.248	0.176	0.119	0.861	0.731	0.602	0.135	0.114
NCI-H2170	0.4	0.845	0.415	0.189	0.177	0.566	0.444	0.166	0.168	0.148	0.49	0.458	0.285	0.151	0.166	0.262	0.241	0.244	0.221	0.2
RERF-LC-KJ	1.31	1.24	0.373	0.306	0.268	0.937	0.945	0.24	0.233	0.253	0.802	0.633	0.27	0.198	0.25	0.939	0.987	0.839	–	0.689
NCI-H1993	0.756	0.8	0.548	0.463	0.448	0.952	1.14	0.742	0.535	0.462	0.448	0.631	0.506	0.364	0.413	0.954	0.852	0.594	0.466	0.51
NCI-H358	0.26	0.378	0.29	0.102	0.13	0.552	0.516	0.195	0.0846	0.078	0.228	0.179	0.219	0.115	0.138	0.553	0.435	0.371	0.175	0.145
NCI-H1915	0.796	0.713	0.389	0.0805	0.0432	0.232	0.211	0.176	0.108	0.0766	0.249	0.261	0.228	0.143	0.0992	1.03	0.961	0.803	0.134	0.0963
SK-LU-1	0.223	0.238	0.203	0.217	0.193	0.39	0.372	0.272	0.197	0.207	0.663	0.487	0.494	0.317	0.304	0.833	0.842	0.427	0.246	0.197
LOU-NH91	0.358	0.385	0.308	0.278	0.301	0.893	0.89	0.688	0.382	0.273	0.841	0.84	0.761	0.513	0.344	0.768	0.793	0.676	0.444	0.499
NCI-H2347	0.522	0.303	0.419	0.346	0.465	0.491	0.569	0.504	0.513	0.471	0.556	0.589	0.531	0.499	0.482	0.943	0.788	0.858	0.507	0.62
NCI-H2126	0.957	0.875	0.532	0.288	0.265	0.813	0.86	0.449	0.238	0.241	0.571	0.605	0.556	0.261	0.227	0.772	0.776	0.636	0.352	0.244
HCC-827	0.335	0.683	0.372	0.194	0.161	0.575	0.547	0.452	0.306	0.179	0.344	0.346	0.328	0.234	0.28	0.165	0.23	0.207	0.13	0.206
NCI-H3122	0.0893	0.0896	0.149	0.0746	0.0906	0.682	0.585	0.149	0.141	0.146	0.373	0.426	0.193	0.14	0.103	1.04	0.58	0.479	0.224	0.244
HOP-62	0.966	0.638	0.708	0.176	0.123	0.387	0.38	0.302	–	0.116	0.227	0.266	0.237	0.186	0.141	1.01	1.08	0.829	0.233	0.121
HCC-44	0.854	1.13	0.613	0.168	0.132	1.06	1.04	0.877	0.39	0.372	0.987	0.984	0.906	0.433	0.258	1.06	0.976	0.987	0.0934	0.171
